For data set [1], the target named is T1, Sigma intracellular receptor 2 (Homo sapiens, UniProt Q5BJF2). Nature of the data set: Binding affinity to sigma 2 receptor (unknown origin).
Data set [2] deals with Delta-type opioid receptor (Homo sapiens, UniProt P41143). Nature of the data set: Binding affinity to DOR (unknown origin).
Another data set has as its target T2, P2Y purinoceptor 14 (Homo sapiens, UniProt Q15391).
T2 sequence (Q15391 whole entry): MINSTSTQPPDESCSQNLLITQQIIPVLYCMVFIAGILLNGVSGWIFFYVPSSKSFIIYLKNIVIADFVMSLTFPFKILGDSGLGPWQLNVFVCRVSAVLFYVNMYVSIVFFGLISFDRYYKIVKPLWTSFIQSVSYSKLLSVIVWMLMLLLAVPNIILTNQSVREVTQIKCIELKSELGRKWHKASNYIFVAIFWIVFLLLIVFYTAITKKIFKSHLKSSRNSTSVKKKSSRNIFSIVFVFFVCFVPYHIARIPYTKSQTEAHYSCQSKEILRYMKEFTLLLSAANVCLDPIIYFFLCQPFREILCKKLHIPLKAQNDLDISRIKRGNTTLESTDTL
Nature of the data set: cell-based.

The target in data set [3] is Sigma non-opioid intracellular receptor 1 (Homo sapiens, UniProt Q99720). Description: Binding affinity to sigma 1 receptor (unknown origin).
The target in data set [4] is T3, liver carboxylesterase (Sus scrofa, UniProt Q29550).
T3 sequence (Q29550 whole entry): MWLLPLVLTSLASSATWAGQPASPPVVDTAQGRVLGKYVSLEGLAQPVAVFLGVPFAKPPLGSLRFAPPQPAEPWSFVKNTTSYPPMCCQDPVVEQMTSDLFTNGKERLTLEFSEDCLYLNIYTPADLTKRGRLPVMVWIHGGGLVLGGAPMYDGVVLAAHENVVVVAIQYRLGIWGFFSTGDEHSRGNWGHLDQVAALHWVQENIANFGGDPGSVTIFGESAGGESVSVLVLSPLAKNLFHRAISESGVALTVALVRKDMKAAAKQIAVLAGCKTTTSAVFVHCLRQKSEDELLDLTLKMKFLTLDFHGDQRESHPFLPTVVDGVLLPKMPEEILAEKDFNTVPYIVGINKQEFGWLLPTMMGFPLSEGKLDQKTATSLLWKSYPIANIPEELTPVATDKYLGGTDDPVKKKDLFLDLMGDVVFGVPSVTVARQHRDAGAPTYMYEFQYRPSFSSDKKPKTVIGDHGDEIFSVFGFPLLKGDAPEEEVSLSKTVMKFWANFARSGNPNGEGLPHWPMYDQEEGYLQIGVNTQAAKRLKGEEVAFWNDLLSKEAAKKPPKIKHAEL
Nature of the data set: Drug metabolism in pH 7.5 HEPES buffer assessed as porcine liver esterase-mediated compound hydrolysis by measuring half life measured up to 120 mins by HPLC analysis. It counts as ADME, tissue-based. Particulars: pig.

The nature of data set [5]: Stability of compound in aqueous medium after 24 hrs in absence of PLE by HPLC analysis. The class given is physicochemical. Particulars: buffer.
Another data set has as its system Mus musculus. Nature of the data set: Antiinflammatory activity in mouse model of ovalbumin/Aspergillus-induced allergic asthma assessed as reduction in eosinophil counts in BALF at 20 umol/kg, ip administered 30 mins prior to allergen challenge and measured after 2 days post challenge. The class given is functional, organism-based. As to conditions: dose 20.0 µmol/kg, time 2.0 day.

Data set [6] concerns the target Voltage-gated inwardly rectifying potassium channel KCNH2 (Homo sapiens, UniProt Q12809).
A short description of data set [7]: Aqueous solubility of compound at pH 7.4. The class given is physicochemical. Particulars: buffer.
Data set [8] can be described thus: Aqueous solubility of compound at pH 4.0. It counts as physicochemical. Particulars: buffer.
Another data set has as its target Translocator protein (Homo sapiens, UniProt P30536). Nature of the data set: Binding affinity to TSPO (unknown origin).
In another data set the target is Histamine H1 receptor (Homo sapiens, UniProt P35367). Description: Binding affinity to H1 receptor (unknown origin).
The target in data set [9] is 5-hydroxytryptamine receptor 1D (Homo sapiens) (UniProt P28221). Description: Inhibition of 5HT1D (unknown origin) at 10 uM relative to control.
The target in data set [10] is T4, Alpha-1B adrenergic receptor (Homo sapiens, UniProt P35368).
T4 sequence (P35368 whole entry): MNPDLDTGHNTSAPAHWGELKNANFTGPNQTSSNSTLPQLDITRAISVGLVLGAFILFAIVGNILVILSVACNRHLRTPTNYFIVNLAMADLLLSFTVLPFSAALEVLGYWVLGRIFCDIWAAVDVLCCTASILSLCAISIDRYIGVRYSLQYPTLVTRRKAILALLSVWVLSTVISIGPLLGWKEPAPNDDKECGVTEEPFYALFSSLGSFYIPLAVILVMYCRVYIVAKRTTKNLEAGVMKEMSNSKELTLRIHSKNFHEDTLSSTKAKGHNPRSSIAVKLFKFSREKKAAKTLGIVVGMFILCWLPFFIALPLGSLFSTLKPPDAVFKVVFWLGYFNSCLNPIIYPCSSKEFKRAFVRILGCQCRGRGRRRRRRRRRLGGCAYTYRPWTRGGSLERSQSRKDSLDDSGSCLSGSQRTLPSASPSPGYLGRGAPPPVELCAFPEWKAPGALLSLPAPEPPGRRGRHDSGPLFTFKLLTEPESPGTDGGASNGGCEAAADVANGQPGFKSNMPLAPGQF
Nature of the data set: Binding affinity to alpha1b (unknown origin).

Data set [11] concerns the target T5, Alpha-2A adrenergic receptor (Homo sapiens, UniProt P08913).
T5 sequence (P08913 whole entry): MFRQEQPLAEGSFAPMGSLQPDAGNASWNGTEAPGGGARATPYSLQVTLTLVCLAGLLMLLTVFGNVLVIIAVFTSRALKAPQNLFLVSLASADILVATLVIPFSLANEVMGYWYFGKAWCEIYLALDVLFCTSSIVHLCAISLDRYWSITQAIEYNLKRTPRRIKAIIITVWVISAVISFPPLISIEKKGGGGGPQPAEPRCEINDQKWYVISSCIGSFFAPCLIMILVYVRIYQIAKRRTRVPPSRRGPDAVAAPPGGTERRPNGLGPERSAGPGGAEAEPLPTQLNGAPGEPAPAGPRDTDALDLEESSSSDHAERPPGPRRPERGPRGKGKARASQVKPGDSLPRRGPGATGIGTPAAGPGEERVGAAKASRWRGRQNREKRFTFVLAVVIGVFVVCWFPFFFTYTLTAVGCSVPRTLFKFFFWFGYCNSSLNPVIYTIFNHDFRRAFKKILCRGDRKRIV
Nature of the data set: Binding affinity to alpha2a (unknown origin).

Data set [12] deals with T6, Alpha-2B adrenergic receptor (Homo sapiens) (UniProt P18089).
T6 sequence (whole entry): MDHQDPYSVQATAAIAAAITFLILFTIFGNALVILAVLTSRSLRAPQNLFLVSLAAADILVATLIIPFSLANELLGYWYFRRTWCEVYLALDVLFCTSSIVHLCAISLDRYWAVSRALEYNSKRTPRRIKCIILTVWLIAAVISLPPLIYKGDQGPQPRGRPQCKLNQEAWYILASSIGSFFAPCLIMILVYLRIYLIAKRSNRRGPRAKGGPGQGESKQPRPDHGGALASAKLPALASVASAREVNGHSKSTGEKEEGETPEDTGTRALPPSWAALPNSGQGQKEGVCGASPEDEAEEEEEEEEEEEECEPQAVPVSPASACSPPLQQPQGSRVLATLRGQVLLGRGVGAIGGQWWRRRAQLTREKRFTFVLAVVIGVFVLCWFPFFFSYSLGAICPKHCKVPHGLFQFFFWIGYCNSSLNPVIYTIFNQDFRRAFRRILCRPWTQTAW
Description: Inhibition of alpha2b (unknown origin) at 10 uM relative to control.

A further data set concerns the target D(1A) dopamine receptor (Homo sapiens, UniProt P21728). Nature of the data set: Binding affinity to D1 receptor (unknown origin).
Another data set deals with D(1B) dopamine receptor (Homo sapiens, UniProt P21918). Description: Binding affinity to D5 receptor (unknown origin).
Data set [13] concerns the target T1, Sigma intracellular receptor 2. Nature of the data set: Inhibition of sigma 2 receptor (unknown origin) at 10 uM relative to control.
The next data set has as its target Histamine H4 receptor (Homo sapiens, UniProt Q9H3N8). Nature of the data set: Binding affinity to H4 receptor (unknown origin).
Data set [14] concerns the target T3, liver carboxylesterase. Description: Drug metabolism in pH 7.5 HEPES buffer assessed as porcine liver esterase-mediated compound hydrolysis by measuring half life measured up to 72 hrs by HPLC analysis. It counts as ADME, tissue-based. As to conditions: pig.
The target in data set [15] is T3, liver carboxylesterase. Nature of the data set: Drug metabolism in pH 7.5 HEPES buffer assessed as porcine liver esterase-mediated compound hydrolysis measured up to 72 hrs by HPLC analysis. It counts as ADME. As to conditions: pig, read-out: Drug degradation.

Converted amounts (≈) assume the structure as drawn. “And” between values parts separate entries of the source, which are not always exact repeats. Equal values may be shown once. The source made the active and inactive calls.

T1 sequence (Q5BJF2 whole entry): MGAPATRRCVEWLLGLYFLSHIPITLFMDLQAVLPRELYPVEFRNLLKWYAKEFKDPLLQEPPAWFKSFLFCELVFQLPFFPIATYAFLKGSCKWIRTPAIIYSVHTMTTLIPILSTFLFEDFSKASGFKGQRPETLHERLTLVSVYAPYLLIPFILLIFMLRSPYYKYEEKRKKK
Chain of Sigma non-opioid intracellular receptor 1 (Q99720 whole entry): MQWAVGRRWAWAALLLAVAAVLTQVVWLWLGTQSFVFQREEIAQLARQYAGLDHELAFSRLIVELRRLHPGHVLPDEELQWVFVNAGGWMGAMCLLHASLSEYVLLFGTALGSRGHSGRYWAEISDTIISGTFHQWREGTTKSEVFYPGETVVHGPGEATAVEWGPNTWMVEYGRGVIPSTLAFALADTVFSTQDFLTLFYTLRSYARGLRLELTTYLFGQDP
Chain of Translocator protein (P30536 whole entry): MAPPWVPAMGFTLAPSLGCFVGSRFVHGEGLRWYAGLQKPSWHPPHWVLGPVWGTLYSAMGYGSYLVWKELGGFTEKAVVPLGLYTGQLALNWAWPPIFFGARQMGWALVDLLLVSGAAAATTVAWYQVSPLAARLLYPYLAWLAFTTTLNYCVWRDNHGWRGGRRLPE
Chain of Delta-type opioid receptor (P41143 whole entry): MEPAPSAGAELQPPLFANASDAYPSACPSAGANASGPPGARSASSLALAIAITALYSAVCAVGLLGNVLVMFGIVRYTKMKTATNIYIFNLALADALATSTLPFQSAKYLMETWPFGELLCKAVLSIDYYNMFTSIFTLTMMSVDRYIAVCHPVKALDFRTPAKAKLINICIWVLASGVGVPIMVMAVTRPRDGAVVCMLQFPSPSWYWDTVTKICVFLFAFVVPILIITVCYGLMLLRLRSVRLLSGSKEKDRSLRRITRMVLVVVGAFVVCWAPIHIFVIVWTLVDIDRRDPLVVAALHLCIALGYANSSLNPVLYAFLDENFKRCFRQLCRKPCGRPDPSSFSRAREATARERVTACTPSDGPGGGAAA
Chain of Voltage-gated inwardly rectifying potassium channel KCNH2 (Q12809 whole entry): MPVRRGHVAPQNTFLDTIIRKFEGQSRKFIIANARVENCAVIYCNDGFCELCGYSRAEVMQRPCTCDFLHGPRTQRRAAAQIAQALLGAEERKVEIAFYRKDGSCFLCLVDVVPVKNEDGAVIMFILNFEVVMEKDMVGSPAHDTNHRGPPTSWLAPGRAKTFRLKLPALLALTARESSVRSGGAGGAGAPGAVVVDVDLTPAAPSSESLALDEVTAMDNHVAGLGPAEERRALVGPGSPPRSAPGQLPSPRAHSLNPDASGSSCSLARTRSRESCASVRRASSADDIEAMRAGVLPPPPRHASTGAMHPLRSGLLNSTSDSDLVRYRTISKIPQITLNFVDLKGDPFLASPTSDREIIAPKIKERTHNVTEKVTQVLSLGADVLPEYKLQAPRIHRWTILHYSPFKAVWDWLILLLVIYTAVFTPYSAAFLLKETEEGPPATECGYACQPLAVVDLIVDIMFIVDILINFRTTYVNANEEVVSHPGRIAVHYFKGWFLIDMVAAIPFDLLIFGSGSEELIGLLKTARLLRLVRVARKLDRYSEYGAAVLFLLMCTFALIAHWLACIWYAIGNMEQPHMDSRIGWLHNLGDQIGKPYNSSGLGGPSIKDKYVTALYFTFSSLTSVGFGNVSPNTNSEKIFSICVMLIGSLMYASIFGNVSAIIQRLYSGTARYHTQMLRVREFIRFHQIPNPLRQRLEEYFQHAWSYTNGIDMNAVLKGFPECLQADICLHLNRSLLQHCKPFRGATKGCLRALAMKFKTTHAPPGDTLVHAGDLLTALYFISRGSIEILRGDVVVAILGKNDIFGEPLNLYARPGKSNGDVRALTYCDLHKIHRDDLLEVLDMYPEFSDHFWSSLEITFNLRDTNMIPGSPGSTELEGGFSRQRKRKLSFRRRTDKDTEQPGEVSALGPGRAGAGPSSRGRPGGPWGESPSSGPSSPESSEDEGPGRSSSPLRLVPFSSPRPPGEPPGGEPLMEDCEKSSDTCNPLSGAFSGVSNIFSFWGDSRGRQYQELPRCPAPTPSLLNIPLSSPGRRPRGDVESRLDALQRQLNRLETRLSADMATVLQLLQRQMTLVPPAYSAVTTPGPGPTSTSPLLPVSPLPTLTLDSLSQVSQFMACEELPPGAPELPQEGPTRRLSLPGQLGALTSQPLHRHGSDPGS
Chain of Histamine H4 receptor (Q9H3N8 whole entry): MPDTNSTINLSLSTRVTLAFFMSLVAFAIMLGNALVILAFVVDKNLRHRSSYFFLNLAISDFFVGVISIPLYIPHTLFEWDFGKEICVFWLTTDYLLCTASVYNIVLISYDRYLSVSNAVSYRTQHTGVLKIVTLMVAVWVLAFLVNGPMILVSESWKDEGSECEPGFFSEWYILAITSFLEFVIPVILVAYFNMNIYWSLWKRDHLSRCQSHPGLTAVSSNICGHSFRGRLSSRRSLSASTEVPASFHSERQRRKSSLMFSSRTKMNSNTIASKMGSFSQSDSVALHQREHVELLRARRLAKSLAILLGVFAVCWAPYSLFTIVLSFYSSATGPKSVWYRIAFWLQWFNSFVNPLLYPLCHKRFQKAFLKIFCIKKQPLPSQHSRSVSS
Chain of D(1A) dopamine receptor (P21728 whole entry): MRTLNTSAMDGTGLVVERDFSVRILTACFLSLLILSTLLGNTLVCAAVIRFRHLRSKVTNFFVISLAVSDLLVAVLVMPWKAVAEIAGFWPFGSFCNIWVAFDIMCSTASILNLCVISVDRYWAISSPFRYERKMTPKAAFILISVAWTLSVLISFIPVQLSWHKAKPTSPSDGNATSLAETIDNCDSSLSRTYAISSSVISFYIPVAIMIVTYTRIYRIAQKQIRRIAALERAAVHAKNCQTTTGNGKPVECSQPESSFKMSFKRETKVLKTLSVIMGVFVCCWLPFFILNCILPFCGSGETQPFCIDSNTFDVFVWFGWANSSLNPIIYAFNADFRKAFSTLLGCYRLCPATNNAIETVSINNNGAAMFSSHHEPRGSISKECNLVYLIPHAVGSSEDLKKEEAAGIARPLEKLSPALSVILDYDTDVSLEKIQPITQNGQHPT
Chain of Histamine H1 receptor (P35367 whole entry): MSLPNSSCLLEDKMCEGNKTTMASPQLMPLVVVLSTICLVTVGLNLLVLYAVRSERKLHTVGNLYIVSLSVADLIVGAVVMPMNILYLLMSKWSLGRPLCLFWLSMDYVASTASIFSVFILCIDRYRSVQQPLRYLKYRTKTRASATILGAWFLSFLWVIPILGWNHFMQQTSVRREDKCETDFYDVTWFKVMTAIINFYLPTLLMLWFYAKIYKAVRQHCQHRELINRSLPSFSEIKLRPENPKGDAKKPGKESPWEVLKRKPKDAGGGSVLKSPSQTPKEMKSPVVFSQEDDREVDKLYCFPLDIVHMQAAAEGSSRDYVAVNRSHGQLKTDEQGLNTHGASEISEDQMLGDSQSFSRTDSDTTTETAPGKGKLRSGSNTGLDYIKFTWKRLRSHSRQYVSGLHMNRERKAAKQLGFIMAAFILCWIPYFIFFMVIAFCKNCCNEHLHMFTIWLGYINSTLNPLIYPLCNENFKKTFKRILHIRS
Chain of D(1B) dopamine receptor (P21918 whole entry): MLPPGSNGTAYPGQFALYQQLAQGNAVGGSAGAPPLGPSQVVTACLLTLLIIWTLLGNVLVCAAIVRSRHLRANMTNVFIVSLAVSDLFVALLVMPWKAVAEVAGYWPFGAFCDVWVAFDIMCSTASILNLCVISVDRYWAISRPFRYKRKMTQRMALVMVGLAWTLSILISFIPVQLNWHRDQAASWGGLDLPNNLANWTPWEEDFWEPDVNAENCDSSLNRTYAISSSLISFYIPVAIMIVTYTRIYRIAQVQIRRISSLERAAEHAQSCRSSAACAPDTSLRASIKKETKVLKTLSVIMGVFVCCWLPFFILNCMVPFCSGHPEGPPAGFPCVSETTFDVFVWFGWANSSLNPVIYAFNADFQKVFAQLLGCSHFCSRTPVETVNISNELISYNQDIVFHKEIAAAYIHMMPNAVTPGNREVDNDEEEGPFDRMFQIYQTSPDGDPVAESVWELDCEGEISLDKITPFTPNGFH
Chain of 5-hydroxytryptamine receptor 1D (Homo sapiens) (P28221 whole entry): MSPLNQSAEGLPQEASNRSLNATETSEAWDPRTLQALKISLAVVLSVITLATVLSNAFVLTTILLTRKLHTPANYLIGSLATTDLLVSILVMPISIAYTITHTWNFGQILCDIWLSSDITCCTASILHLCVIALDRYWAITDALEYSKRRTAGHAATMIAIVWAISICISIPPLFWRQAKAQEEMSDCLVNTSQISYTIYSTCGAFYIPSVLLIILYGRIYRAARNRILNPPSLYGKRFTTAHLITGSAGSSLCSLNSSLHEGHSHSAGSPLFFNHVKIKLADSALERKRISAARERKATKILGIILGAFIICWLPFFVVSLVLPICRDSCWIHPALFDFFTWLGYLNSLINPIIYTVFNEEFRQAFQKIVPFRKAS

Consider `O=C(O)c1cc(-c2ccc(-c3nnn[nH]3)cc2)cc(-n2cc(-c3ccc(C(F)(F)F)cc3)nn2)c1`, for which the Ki (commonly a dissociation constant, usually derived from enzyme kinetics or from competition with a known ligand) in data set [1] is 2260 nM; in data set [2], 3300 nM.
Consider `CC(C)(C)OC(=O)NC1(c2ccc(-c3cc(C(=O)O)cc(-n4cc(-c5ccc(C(F)(F)F)cc5)nn4)c3)cc2)CCC1`, for which the IC50 (commonly the concentration needed to halve the response being measured) at P2Y purinoceptor 14 was over 10000 nM.
As for `O=C(O)c1cc(-c2ccc(NC(=O)C3CCNCC3)cc2)cc(-n2cc(-c3ccc(C(F)(F)F)cc3)nn2)c1`, the Ki in data set [3] is 2330 nM; in data set [2] it was 2000 nM.
As to `CN(C)C(=O)COC(=O)c1cc(-c2ccc(C3CCNCC3)cc2)cc(-n2cc(-c3ccc(C(F)(F)F)cc3)nn2)c1`, the half-life (as a rule, the time needed for the level to fall by half in the phase considered) at liver carboxylesterase [4] worked out at 0.337 h. The Stabilty entry in [5] was “Stable”.
As for `O=C(O)c1cc(-c2ccc(C3CCNCC3)cc2)c2ccc(-c3ccc(C(F)(F)F)cc3)cc2c1` [PPTN], the outcome with Mus musculus was Active. Moreover, in data set [6], the EC50 – broadly, the concentration giving half of the maximal effect – was over 30000 nM.
With `O=C(O)c1cc(-c2ccc(-c3cc(CO)on3)cc2)cc(-n2cc(-c3ccc(C(F)(F)F)cc3)nn2)c1`, the solubility (commonly how much of the substance goes into solution per volume) was 3.72 ug ml-1 and 7.34 uM in data set [7]; 0.6 µg/mL (≈ 1.18 µM) in data set [8]. Also, the figures for the Ki at Translocator protein and on Histamine H1 receptor were 751 nM and 2650 nM, respectively.
`O=CN1CCC(c2ccc(-c3cc(C(=O)O)cc4cc(-c5ccc(C(F)(F)F)cc5)ccc34)cc2)CC1`: the Ki in data set [3] was 759 nM; in data set [10], 2650 nM; in data set [11], 3970 nM; on D(1A) dopamine receptor it was 520 nM; on D(1B) dopamine receptor it was 1440 nM; on Histamine H4 receptor it was 1700 nM. Moreover, the inhibition (usually the drop in the measured response relative to a control, in per cent) in data set [9] is 81%; in [12], 82%; in data set [13], 84%.
As to `CC(=O)N1CCC(c2ccc(-c3cc(C(=O)OCC(=O)N(C)C)cc4cc(-c5ccc(C(F)(F)F)cc5)ccc34)cc2)CC1`, the Ki in [1] was determined as 590 nM. The half-life at liver carboxylesterase [14] was over 72 h. Moreover, the metabolised at 72 h on liver carboxylesterase [15] was determined as 27.2%. For the same compound, the Stabilty entry in [5] is “Stable”. In addition, the outcome in the data set on Mus musculus was Active.
In the case of `CN(C)C(=O)COC(=O)c1cc(-c2ccc(-c3cc(CO)on3)cc2)c2ccc(-c3ccc(C(F)(F)F)cc3)cc2c1`, the half-life at liver carboxylesterase [14] was over 72 h. The metabolised at 72 h on liver carboxylesterase [15] is 32.6%. For the same compound, the Stabilty entry in data set [5] is given as “Stable”. In addition, the result with Mus musculus was Active.
In turn, `O=C(O)c1cc(-c2ccc(Br)cc2)cc(-n2cc(-c3ccc(C(F)(F)F)cc3)nn2)c1` returned a concentration for half-maximal inhibition (IC50) against P2Y purinoceptor 14 of over 10000 nM.
Regarding `NC(=O)Cc1ccc(-c2cc(C(=O)O)cc(-n3cc(-c4ccc(C(F)(F)F)cc4)nn3)c2)cc1`, the Ki came to 931 nM in [1] and 2810 nM at Translocator protein.

Values taken from ChEMBL document CHEMBL4808172, “Structure-Activity Relationship of Heterocyclic P2Y14 Receptor Antagonists: Removal of the Zwitterionic Character with Piperidine Bioisosteres” (J Med Chem, 2021).
